These results are taken from patent US11013728B2, “Cyclin-dependent kinase 8 and/or 19 inhibitor” (Kyoto Pharmaceutical Industries, Ltd., priority 2017, dated 2021).

Assay [1] has as its system human acute myeloid leukemia MV4; 11. Nature of the assay: MV4;11 cell proliferation inhibitory activity (CellTiter 96 Aqueous One). As to conditions: 72 h, MV4;11 cells, cultured 3 days, read-out: cell proliferation inhibitory rate. It counts as cell-based. Here is the method: The human acute myeloid leukemia MV4; 11 cell proliferation inhibitory activity of compound (I) of the present invention was evaluated by the following method.
A cell suspension (100 μL, 10,000 cells/well) of human acute myeloid leukemia MV4; 11 (purchased from American Type Culture Collection) was seeded on a 96 well plate and cultured in a 5% carbon dioxide gas incubator at 37° C. for one day. After the above-mentioned culture, each test compound (compound (I)) was added to a concentration of 1 μM and the mixture was further cultured for 3 days. After the above-mentioned culture, 40 μL of CellTiter 96 (registered trade mark) Aqueous One Solution Cell Proliferation Assay (Promega KK) was added to the 96 well-plate, the mixture was reacted for 3 hr, and the absorbance (490 nm) was measured by a plate reader.
Using the absorbance of the test compound non-addition well as a control and the absorbance of the cell non-seeded well as a blank, the cell proliferation inhibitory rate was determined at 1 μM of each test compound.

Assay [2] has as its target T1, CDK19 (Homo sapiens, UniProt Q9BWU1).
T1 construct: purchased Carna Bioscience
The assay can be described thus: CDK19 inhibitory activity, ELISA kinase assay. As to conditions: at 1 μM of test compound; read-out: CDK19 inhibitory rate. It counts as biochemical. Here is the method: The test compound (compound (I)) dissolved in DMSO was diluted with an assay buffer (QSS Assist STK ELISA Kit (CDK8/CycC), Carna Bioscience) to give a primary dilution solution with a DMSO concentration of 40%. The above-mentioned primary dilution solution (10 μL) was dispensed in a streptavidin-coated 96 well plate, and an assay buffer mixture (10 μL) containing 500 nM substrate (Carna Bioscience), 10 mM MgCl2 (Carna Bioscience) and 100 μM ATP (Carna Bioscience) was added. After the above-mentioned addition, 10 μL of a kinase solution was added (1 ng/μL CDK8/CycC (Carna Bioscience) diluted with assay buffer is used for measurement of CDK8 inhibitory activity and for 5 ng/μL […] (Carna Bioscience) diluted with assay buffer is used for measurement of CDK19 inhibitory activity). After the above-mentioned addition, the mixture was stood in an incubator at 24-26° C. for 30 min. […] The reaction was quenched by adding a color developing reaction termination drug (Nacalai Tesque) (100 μL) to each well, and the absorbance (450 nm) was measured by a plate reader.
Using the absorbance of the test compound non-addition well as a control and the absorbance of the enzyme non-addition well as a blank, the CDK8 and CDK19 inhibitory rate was determined at 1 μM of each test compound.

The test system of assay [3] is 39 kinds of serine/threonine kinase. Nature of the assay: Off-chip Mobility Shift Assay (MSA), serine/threonine kinase panel. As to conditions: test compound 1 μM; 39 kinases listed in b243 (AKT1 ... TSSK1, incl. CDK2, 3, 4, 5, 6, 7, 9). It counts as biochemical. The method, then: The action of compound (I) of the present invention on serine/threonine kinase activity was examined by Off-chip Mobility Shift Assay (MSA). The method is shown below.
The action of a test compound (1 μM) on 39 kinds of serine/threonine kinase activity was examined. A solution of 4-fold concentration of compound 32 (5 μL) prepared by using an assay buffer (20 mM HEPES, 0.01% Triton X-100, 2 mM DTT, pH 7.5), a substrate/ATP/metal solution (5 μL) and a kinase […] solution (10 μL) were mixed in a well of a polypropylene 384 well plate and the mixture was reacted at room temperature for 1 or 5 hr. The reaction was discontinued by adding 70 μL of Termination Buffer (Carna Biosciences). The substrate peptide and phosphorylated peptide in the reaction solution were separated and quantified by LabChip System (Perkin Elmer).
The kinase reaction was evaluated based on a resultant product ratio (P/(P+S)) calculated from substrate peptide peak height (S) and phosphorylated peptide peak height (P).

The subject of assay [4] is various cancer cells. As to conditions: reported in non-patent document 3; remarkable effects on leukemia cells; cited from earlier work.

A value given as a limit tells only on which side of the number the result lay.

T1 sequence (Q9BWU1 whole entry): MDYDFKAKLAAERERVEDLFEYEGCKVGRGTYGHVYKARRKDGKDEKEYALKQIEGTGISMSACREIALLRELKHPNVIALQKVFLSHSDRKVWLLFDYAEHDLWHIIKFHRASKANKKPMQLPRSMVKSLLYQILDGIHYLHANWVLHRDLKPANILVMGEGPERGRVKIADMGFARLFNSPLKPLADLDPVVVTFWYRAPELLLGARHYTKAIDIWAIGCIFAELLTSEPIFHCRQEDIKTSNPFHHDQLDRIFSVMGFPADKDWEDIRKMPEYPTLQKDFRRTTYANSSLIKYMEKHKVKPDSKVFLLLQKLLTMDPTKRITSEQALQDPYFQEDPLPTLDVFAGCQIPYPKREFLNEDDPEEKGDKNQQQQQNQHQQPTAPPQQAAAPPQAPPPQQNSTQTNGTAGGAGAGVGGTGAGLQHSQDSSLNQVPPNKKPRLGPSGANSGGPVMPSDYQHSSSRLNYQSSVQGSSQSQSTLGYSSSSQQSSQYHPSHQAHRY
T1 sequence (P24863 whole entry partner): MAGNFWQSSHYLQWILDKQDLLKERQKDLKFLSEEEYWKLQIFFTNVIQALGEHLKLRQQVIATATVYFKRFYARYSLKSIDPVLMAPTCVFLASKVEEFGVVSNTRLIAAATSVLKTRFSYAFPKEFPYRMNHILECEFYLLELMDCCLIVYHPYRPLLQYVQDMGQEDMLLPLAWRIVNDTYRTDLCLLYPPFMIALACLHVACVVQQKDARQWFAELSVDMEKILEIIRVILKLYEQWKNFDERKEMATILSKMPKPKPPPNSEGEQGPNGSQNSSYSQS

As to `NC(=O)c1ccc([N+](=O)[O-])c(Nc2ccc(N3CC(OCCO)C3)cc2)c1` [Compound 5, 3-{4-[3-(2-hydroxyethoxy)azetidin-1-yl]phenylamino}-4-nitrobenzamide], the inhibition at 1 µM in assay [1] is not below 50%. Still for that read-out and setting: the figure for `CC(=O)c1ccc(C(N)=O)cc1Oc1ccc(N2CC(OCCO)C2)cc1` [Compound 28, 4-acetyl-3-{4-[3-(2-hydroxyethoxy)azetidin-1-yl]phenoxy}benzamide] is not below 50%. As for `CC(=O)c1ccc(C(N)=O)cc1Oc1ccc(OCCOC2CCOCC2)cc1` [Compound 32, 4-acetyl-3-{4-[2-(tetrahydropyran-4-yloxy)ethoxy]phenoxy}benzamide], the inhibition at 1 µM in assay [2] is not below 90%; in assay [1], not below 50%. In assay [3], the “action on serine/threonine kinase activity” value is “did not affect”. Consider `CC(=O)c1ccc(C(N)=O)cc1Oc1ccc(OCCOCCOC(C)C)cc1` [Compound 33, 4-acetyl-3-{4-[2-(2-isopropoxyethoxy)ethoxy]phenoxy}benzamide], for which the inhibition at 1 µM in assay [1] is not below 50%. Turning to `C[C@@H](O)c1ccc(C(N)=O)cc1Oc1ccc(OCCOC2CCOCC2)cc1` [Compound 43], the inhibition at 1 µM in assay [2] is not below 90%. `CNC(=O)c1ccc([N+](=O)[O-])c(Nc2ccc(N3CC(OCCO)C3)cc2)c1` [Compound 48, 3-{4-[3-(2-hydroxyethoxy)azetidin-1-yl]phenylamino}-N-methyl-4-nitrobenzamide]: in assay [1], the inhibition at 1 µM was not below 50%. As to `NC(=O)c1ccc([N+](=O)[O-])c(Nc2ccc(OCCOC3CCOCC3)cc2)c1` [Compound 50, 4-nitro-3-{4-[2-(tetrahydropyran-4-yloxy)ethoxy]phenylamino}benzamide], the inhibition at 1 µM in assay [1] is not below 50%. Same read-out and setting: for `NC(=O)c1ccc(C(F)(F)F)c(Oc2ccc(OCCOC3CCOCC3)cc2)c1` [Compound 64, 3-{4-[2-(tetrahydropyran-4-yloxy)ethoxy]phenoxy}-4-trifluoromethylbenzamide] the value was not below 50%; for `CC(=O)c1ccc(C(N)=O)cc1Oc1ccc(OCCOC2CCOC2)cc1` (stereo not shown) [Compound 67, 4-acetyl-3-{4-[2-(tetrahydrofuran-3-yloxy)ethoxy]phenoxy}benzamide], not below 50%; for `C=C(F)c1ccc(C(N)=O)cc1Oc1ccc(OCCOC2CCOCC2)cc1` [Compound 84, 4-(1-fluorovinyl)-3-{4-[2-(tetrahydropyran-4-yloxy)ethoxy]phenoxy}benzamide], not below 50%. With Cortistatin A, the “proliferation of various cancer cells” value in assay [4] is recorded as “suppresses proliferation”.
